Source: ChEMBL document CHEMBL6078643, “Palladium-Mediated Bioorthogonal System for Prodrug Activation of N-Benzylbenzamide-Containing Tubulin Polymerization Inhibitors for the Treatment of Solid Tumors” (J Med Chem, 2024)
Active and inactive are the calls of the source. The calls are words filed in the database; no cut-off is given here.

Tests used:
Tubulin (Homo sapiens) [1] = target: T1, Tubulin (Homo sapiens) (UniProt P68371+Q9H4B7+P0DPH7+P68366+Q13509+Q71U36+P04350+Q3ZCM7+P07437+P68363+Q9BQE3+Q6PEY2+Q13885+Q9BVA1+Q9BUF5); experiment: Inhibition of tubulin polymerization in human HepG2 cells assessed as decrease in polymerized alpha tubulin level at 80 nM incubated for 24 hrs in presence of palladium resins by Western blotting analysis; assay type: cell-based
K562 [2] = experiment: Antiproliferative activity against human K562 cells assessed as reduction in cell viability incubated for 72 hrs by CCK-8 assay; assay type: functional, cell-based; details: K562, 72 h
H22 = experiment: Select factor, ratio of test compound IC50 to 5-fluoro-N-(3-hydroxy-4-methoxybenzyl)-2-morpholinobenzamide IC50 for antiproliferative activity against mouse H22 cells assessed as reduction in cell viability incubated for 72 hrs by CCK-8 assay; assay type: functional
HepG2 [3] = experiment: Cytotoxicity against human HepG2 cell assessed as parent drug 5-fluoro-N-(3-hydroxy-4-methoxybenzyl)-2-morpholinobenzamide mediated decrease in cell viability at 100 nM in presence of palladium resins incubated for 72 hrs by CCK-8 assay; assay type: functional, cell-based
K562 [4] = experiment: Cytotoxicity against human K562 cells assessed as parent drug 5-fluoro-N-(3-hydroxy-4-methoxybenzyl)-2-morpholinobenzamide mediated decrease in cell viability at 100 nM in presence of palladium resins incubated for 72 hrs by CCK-8 assay; assay type: functional, cell-based
Tubulin (Homo sapiens) [5] = target: T1, Tubulin (Homo sapiens); experiment: Disruption of microtubule organization in human K562 cells at 80 nM incubated for 72 hrs in presence of palladium resins by DAPI staining based confocal microscopic analysis; assay type: cell-based
K562 [6] = experiment: Induction of cell cycle arrest in human K562 cells assessed as accumulation of cells at G1 phase at 80 nM incubated for 72 hrs in presence of palladium resins by PI staining based flow cytometric analysis ( Rvb = 77.46 %); assay type: functional
K562 [7] = experiment: Induction of cell cycle arrest in human K562 cells assessed as accumulation of cells at S phase at 80 nM incubated for 72 hrs in presence of palladium resins by PI staining based flow cytometric analysis ( Rvb = 14.04 %); assay type: functional
K562 [8] = experiment: Induction of cell cycle arrest in human K562 cells assessed as accumulation of cells at G2 phase at 80 nM incubated for 72 hrs in presence of palladium resins by PI staining based flow cytometric analysis ( Rvb = 8.5 %); assay type: functional
K562 [9] = experiment: Induction of cell cycle arrest in human K562 cells assessed as accumulation of cells at S phase at 80 nM incubated for 72 hrs by PI staining based flow cytometric analysis ( Rvb = 14.04 %); assay type: functional
K562 [10] = experiment: Induction of cell cycle arrest in human K562 cells assessed as accumulation of cells at G2/M phase at 80 nM incubated for 72 hrs in presence of palladium resins by PI staining based flow cytometric analysis ( Rvb = 8.5 %); assay type: functional
K562 [11] = experiment: Induction of apoptosis in human K562 cells assessed as nucleus fragmentation at 80 nM incubated for 72 hrs in presence of palladium resins by Hoechst 33342 staining based fluorescent microscopic analysis; assay type: functional, cell-based
K562 [12] = experiment: Induction of apoptosis in human K562 cells assessed as late apoptotic cells at 80 nM incubated for 72 hrs by Annexin V-APC staining based flow cytometric analysis (reference value: 1.36%); assay type: functional
K562 [13] = experiment: Induction of apoptosis in human K562 cells assessed as necrotic cells at 80 nM incubated for 72 hrs by Annexin V-APC staining based flow cytometric analysis (reference value: 1.65%); assay type: functional
K562 [14] = experiment: Induction of apoptosis in human K562 cells assessed as viable cells at 80 nM incubated for 72 hrs in presence of palladium resins by Annexin V-APC staining based flow cytometric analysis (reference value: 94.21%); assay type: functional; details: read-out: Activity
K562 [15] = experiment: Induction of apoptosis in human K562 cells assessed as early apoptotic cells at 80 nM incubated for 72 hrs in presence of palladium resins by Annexin V-APC staining based flow cytometric analysis (reference value: 2.78%); assay type: functional
Tubulin (Homo sapiens) [16] = target: T1, Tubulin (Homo sapiens); experiment: Disruption of microtubule organization in human K562 cells assessed as appearance of fibrous microtubules at 80 nM incubated for 72 hrs by DAPI staining based confocal microscopic analysis; assay type: cell-based
K562 [17] = experiment: Antiproliferative activity against human K562 cells at 100 nM incubated for 72 hrs in presence of palladium resins by CCK-8 assay; assay type: functional, cell-based
HepG2 [18] = experiment: Antiproliferative activity against human HepG2 cells at 100 nM incubated for 72 hrs in presence of palladium resins by CCK-8 assay; assay type: functional, cell-based
Mitochondrial membrane [19] = experiment: Induction of mitochondrial membrane potential loss in human K562 cells assessed as increase in green fluorescence intensity at 80 nM incubated for 72 hrs in presence of palladium resins by JC-1 staining based flow cytometric analysis (reference value: 6.74%); assay type: cell membranes
Mitochondrial membrane [20] = experiment: Induction of mitochondrial membrane potential loss in human K562 cells assessed as green fluorescence intensity incubated for 72 hrs by JC-1 staining based flow cytometric analysis (reference value: 6.74%); assay type: cell membranes
K562 [21] = experiment: Induction of ROS generation in human K562 cells assessed as increase in DCF-positive cells incubated for 72 hrs by DCF-DA staining based flow cytometric analysis (reference value: 7.67%); assay type: functional
Tubulin (Homo sapiens) [22] = target: T1, Tubulin (Homo sapiens); experiment: Inhibition of tubulin polymerization in human HepG2 cells assessed as decrease in alpha tubulin expression at 80 nM incubated for 24 hrs in presence of palladium resins by Western blotting analysis; assay type: cell-based
Tubulin (Homo sapiens) [23] = target: T1, Tubulin (Homo sapiens); experiment: Inhibition of tubulin polymerization in human HepG2 cells assessed as decrease in beta tubulin expression at 80 nM incubated for 24 hrs in presence of palladium resins by Western blotting analysis; assay type: cell-based
Tubulin (Homo sapiens) [24] = target: T1, Tubulin (Homo sapiens); experiment: Inhibition of tubulin polymerization in human K562 cells assessed as decrease in beta tubulin expression at 80 nM incubated for 24 hrs in presence of palladium resins by Western blotting analysis; assay type: cell-based
Tubulin (Homo sapiens) [25] = target: T1, Tubulin (Homo sapiens); experiment: Inhibition of tubulin polymerization in human K562 cells assessed as decrease in polymerized alpha tubulin level at 80 nM incubated for 24 hrs in presence of palladium resins by Western blotting analysis; assay type: cell-based
HepG2 [26] = experiment: Antitumor activity against human HepG2 cells xenografted in Balb/c mouse assessed as tumor growth inhibition at 20 mg/kg, iv administered daily in presence of palladium resins for 14 days relative to control; assay type: functional; details: HepG2, 336 h, time 14 day
[27] = Toxicity in Balb/c mouse xenografted with human HepG2 cells assessed as change in body weight at 20 mg/kg, iv administered daily in presence of palladium resins for 14 days and measured every 2 days; assay type: organism-based; details: in vivo, 336 h, time 14 day
HepG2 [28] = experiment: Antitumor activity against human HepG2 cells xenografted in Balb/c mouse assessed as cell necrosis at 20 mg/kg, iv administered daily for 14 days in presence of palladium resins by TUNEL staining based analysis; assay type: functional, organism-based; details: time 14.0 day
[29] = Toxicity in Balb/c mouse xenografted with human HepG2 cells assessed as effect on liver at 20 mg/kg, iv administered daily in presence of palladium resins for 14 days by H and E staining based analysis; assay type: organism-based; details: in vivo, 336 h, time 14 day
[30] = Toxicity in Balb/c mouse xenografted with human HepG2 cells assessed as effect on spleen at 20 mg/kg, iv administered daily in presence of palladium resins for 14 days by H and E staining based analysis; assay type: organism-based; details: in vivo, 336 h, time 14 day

C#CCOc1cc(CNC(=O)c2cc(F)ccc2N2CCOCC2)ccc1OC
inhibition (Tubulin (Homo sapiens) [1]): Active
IC50 (K562 [2]): 1100 nM
Ratio IC50 (H22): 39.6
Activity (HepG2 [3]): Active
Activity (K562 [4]): Active
Activity (Tubulin (Homo sapiens) [5]): Active
Activity (K562 [6]): 58.6%
Activity (K562 [7]): 29.11%
Activity (K562 [8]): 12.3%
Activity (K562 [9]): 23.64%
Activity (K562 [10]): 12.3%
Activity (K562 [11]): Active
Activity (K562 [12]): 1.96%
Activity (K562 [13]): 1.26%
viability at 0.08 µM (K562 [14]): 45.4%
Activity (K562 [15]): 23.78%
Activity (Tubulin (Homo sapiens) [16]): Active
Activity (K562 [17]): Active
Activity (HepG2 [18]): Active
Activity (Mitochondrial membrane [19]): 54.2%
Activity (Mitochondrial membrane [20]): 8.08%
Activity (K562 [21]): 8.22%
inhibition (Tubulin (Homo sapiens) [22]): Active
inhibition (Tubulin (Homo sapiens) [23]): Active
inhibition (Tubulin (Homo sapiens) [24]): Active
inhibition (Tubulin (Homo sapiens) [25]): Active
inhibition in vivo at 20 mg/kg (HepG2 [26]): 63.2%
Activity [27]: Non-toxic
Activity (HepG2 [28]): Active
Activity [29]: Non-toxic
Activity [30]: Non-toxic
